From patent publication US10428055B2, “Substituted piperidines having GPR119 agonistic activity” (DONG-A ST CO., LTD., priority 2014, dated 2019)

Assays:
Human GPR119 = target: T1, Human GPR119 (Homo sapiens, UniProt Q8TDV5); test: Human GPR119 activation assay (cAMP, HTRF); assay type: cell-based; conditions: HEK293 cells transiently expressing human GPR119, relative to maximum effect of OEA; for Emax at 0.001 µM / Emax at 0.01 µM: 1 h, read-out: hGPR119 activation ability (cAMP assay) Relative Response % vs OEA
T1 construct: host or cells: HEK293 (ATCC)
T1 sequence (Q8TDV5 1-335): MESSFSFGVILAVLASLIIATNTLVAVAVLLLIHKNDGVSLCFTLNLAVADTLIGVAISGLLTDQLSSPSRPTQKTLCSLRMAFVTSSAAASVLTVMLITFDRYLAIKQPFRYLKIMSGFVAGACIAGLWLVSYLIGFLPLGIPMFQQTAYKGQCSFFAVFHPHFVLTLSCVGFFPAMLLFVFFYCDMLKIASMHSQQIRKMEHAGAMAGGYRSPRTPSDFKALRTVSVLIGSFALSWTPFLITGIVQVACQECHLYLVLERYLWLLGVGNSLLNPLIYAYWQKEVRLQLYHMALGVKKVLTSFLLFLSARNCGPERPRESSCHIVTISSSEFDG
Description: <Experimental Example 1>Human GPR119 activation assay
Human GPR119 was temporarily expressed on cells, thereby quantifying the amount of cyclic adenosine 3′,5′-monophosphate (cAMP) increased upon activating GPR119 by the compound of the present invention, using the product from Cysbio, by a method of HTRF (homogeneous time resolved fluorescence), and such quantification was used to refer to efficacy on GPR119 activation.
Human GPR119 expression vector (Origene) was overexpressed in […] renal epithelial cells (HEK293) (ATCC), and the cells were stabilized for 48 hours. With a solution of 11.1 mM glucose, 0.1% bovine serum albumin, and 0.5 mM IBMX (3-isobutyl-1-methylxanthine) which is a phosphodiesterase inhibitor being added to a KRBH (Krebs-Ringer Bicarbonate HEPES; Hou ZQ. et al., Mol Cell Endocrinol, 2008(291):71-78) buffer, the cells were pre-treated for 10 minutes. Thereafter, the cells were treated with the same solution containing a drug for 60 minutes, then the supernatant was removed, and the increase in cAMP in cells was quantified using a Cysbio cAMP HiRange kit.
As to the maximum efficacy of compounds tested, multiple concentration assessment for the compounds of the present invention was carried out, thereby assessing the relative activation level (%) to the maximum effect of oleoylethanolamide (OEA), an endogenous ligand of GPR119.

C57BL/6 mouse = test: Assessment of glucose tolerance improvement effect in mouse; assay type: in vivo; conditions: 2 h; 10 mg/kg oral, 30 min before oral glucose 2 g/kg; male C57BL/6 mouse; blood glucose AUC
Protocol: <Experimental Example 2>Assessment of glucose tolerance improvement effect in mouse
As one of anti-diabetic effect indicators, the glucose tolerance improvement effect of the above compounds was evaluated in 7-week male laboratory mouse (C57BL/6 mouse), as the effect of improving postprandial glycemic control ability.
The laboratory mouse was fasted from the day before the experiment for 16-17 hours. The compound of the present invention was orally administered 30 minutes before administrating glucose, and after 30 minutes, a glucose solution (2 g/kg/10 ml) was orally administered. A drug was prepared by suspending in a 10% Gelucire solution. At the times immediately before drug administration, immediately before glucose solution administration, 15 minutes, 30 minutes, 60 minutes, 90 minutes, and 120 minutes after glucose administration, the whole blood glucose levels was measured from tail vein using a blood glucose meter (AccuChek Active, Roche Diagnostics), and the area under the curve of a temporal blood glucose curve was calculated. From the calculated area under the blood glucose curve, the area under the blood glucose curve of a negative control group to which no glucose solution was administered was subtracted, and inhibitory activity against blood glucose increase of a control group to which only the 10% Gelucire solution and glucose solution were administered was calculated as a percentage, thereby evaluating the glucose tolerance improvement efficacy of a drug.
The results are shown in Table 3, in which the glucose tolerance improvement effect represented at a dose of 10 mg/kg was represented by classifying into three groups, under 30%, more than 30% under 40%, and more than 40%. A significant glucose tolerance improvement effect was identified in 22 compounds on which the experiment was carried out, and among those compounds, 16 compounds represented an excellent in vivo activity of 30% inhibitory dose of 10 mg/kg or less. In the following Table 3, A represents an inhibitory activity more than 40%, B represents an inhibitory activity more than 30% under 40% and C represents an inhibitory activity under 30%.

`CCc1cnc(N2CCC(CCCOc3cc(F)c(C4=NC[C@@H](C)O4)c(F)c3)CC2)nc1` [Example 5, (R)-2-(4-(3-(1-(5-ethylpyrimidin-2-yl)piperidin-4-yl)propoxy)-2,6-difluorophenyl)-5-methyl-4,5-dihydrooxazole] was tested, and the Emax at 0.001 µM (Human GPR119; 1 nM) was 44.6%, the Emax at 0.01 µM (Human GPR119; 10 nM) was 150% and the inhibition in vivo at 10 mg/kg (C57BL/6 mouse) was greater than 40%.

In the case of `CCc1cnc(N2CCC(CCCOc3cc(F)c(C4=NC[C@H](CO)O4)c(F)c3)CC2)nc1` [Example 7, (R)-(2-(4-(3-(1-(5-ethylpyrimidin-2-yl)piperidin-4-yl)propoxy)-2,6-difluorophenyl)-4,5-dihydrooxazol-5-yl)methanol], the Emax at 0.001 µM (Human GPR119; 1 nM) is reported as 51.3%, the Emax at 0.01 µM (Human GPR119; 10 nM) is reported as 170% and the inhibition in vivo at 10 mg/kg (C57BL/6 mouse) is reported as less than 30%.

With `CC(C)c1noc(N2CCC(CCCOc3cc(F)c(C4=NC[C@H](C)O4)c(F)c3)CC2)n1` [Example 11, (S)-5-(4-(3-(3,5-difluoro-4-(5-methyl-4,5-dihydrooxazol-2-yl)phenoxy)propyl)piperidin-1-yl)-3-isopropyl-1,2,4-oxadiazole] the Emax at 0.001 µM (Human GPR119; 1 nM) was 184%, the Emax at 0.01 µM (Human GPR119; 10 nM) was 266% and the inhibition in vivo at 10 mg/kg (C57BL/6 mouse) was less than 30%.

`CC(C)c1noc(N2CCC(CCCOc3cc(F)c(C4=NCC(C)(C)O4)c(F)c3)CC2)n1` [Example 12, 5-(4-(3-(4-(5,5-dimethyl-4,5-dihydrooxazol-2-yl)-3,5-difluorophenoxy)propyl)piperidin-1-yl)-3-isopropyl-1,2,4-oxadiazole] showed an Emax at 0.001 µM (Human GPR119; 1 nM) of 116%, an Emax at 0.01 µM (Human GPR119; 10 nM) of 232% and an inhibition in vivo at 10 mg/kg (C57BL/6 mouse) greater than 40%.

With `CCc1cnc(N2CCC(CCCOc3cc(F)c(-c4noc(C)n4)c(F)c3)CC2)nc1` [Example 13, 3-(4-(3-(1-(5-ethylpyrimidin-2-yl)piperidin-4-yl)propoxy)-2,6-difluorophenyl)-5-methyl-1,2,4-oxadiazole] the Emax at 0.001 µM (Human GPR119; 1 nM) was 49.4%, the Emax at 0.01 µM (Human GPR119; 10 nM) was 126% and the inhibition in vivo at 10 mg/kg (C57BL/6 mouse) was 30 to 40%.

In the case of `CCc1cnc(N2CCC(CCCOc3cc(F)c(-c4noc(C(C)C)n4)c(F)c3)CC2)nc1` [Example 15, 3-(4-(3-(1-(5-ethylpyrimidin-2-yl)piperidin-4-yl)propoxy)-2,6-difluorophenyl)-5-isopropyl-1,2,4-oxadiazole], the “hGPR119 activation ability (cAMP assay) Relative Response % vs OEA” value (Human GPR119; 1 nM) is reported as 87.7%, the “hGPR119 activation ability (cAMP assay) Relative Response % vs OEA” value (Human GPR119; 10 nM) is reported as 183.8% and the inhibition in vivo at 10 mg/kg (C57BL/6 mouse) is reported as greater than 40%.

With `CCc1cnc(N2CCC(CCCOc3cc(F)c(-c4noc([C@@H](O)CC)n4)c(F)c3)CC2)nc1` [Example 19, (S)-1-(3-(4-(3-(1-(5-ethylpyrimidin-2-yl)piperidin-4-yl)propoxy)-2,6-difluorophenyl)-1,2,4-oxadiazol-5-yl) propan-1-ol] the Emax at 0.001 µM (Human GPR119; 1 nM) was 46.5%, the Emax at 0.01 µM (Human GPR119; 10 nM) was 313% and the inhibition in vivo at 10 mg/kg (C57BL/6 mouse) was 30 to 40%.

In the case of `CCc1cnc(N2CCC(CCCOc3cc(F)c(-c4noc(C(C)(C)CO)n4)c(F)c3)CC2)nc1` [Example 22, 2-(3-(4-(3-(1-(5-ethylpyrimidin-2-yl)piperidin-4-yl)propoxy)-2,6-difluorophenyl)-1,2,4-oxadiazol-5-yl)-2-methylpropan-1-ol], the Emax at 0.001 µM (Human GPR119; 1 nM) is reported as 54.9%, the Emax at 0.01 µM (Human GPR119; 10 nM) is reported as 178% and the inhibition in vivo at 10 mg/kg (C57BL/6 mouse) is reported as 30 to 40%.

With `CCCc1cnc(N2CCC(CCCOc3cc(F)c(-c4noc(C(C)C)n4)c(F)c3)CC2)nc1` [Example 23, 3-(2,6-difluoro-4-(3-(1-(5-propylpyrimidin-2-yl)piperidin-4-yl)propoxy)phenyl)-5-isopropyl-1,2,4-oxadiazole] the Emax at 0.001 µM (Human GPR119; 1 nM) was 78.3%, the Emax at 0.01 µM (Human GPR119; 10 nM) was 141% and the inhibition in vivo at 10 mg/kg (C57BL/6 mouse) was greater than 40%.

`CCCCCc1cnc(N2CCC(CCCOc3cc(F)c(-c4noc(C(C)C)n4)c(F)c3)CC2)nc1` [Example 24, 3-(2,6-difluoro-4-(3-(1-(5-pentylpyrimidin-2-yl)piperidin-4-yl)propoxy)phenyl)-5-isopropyl-1,2,4-oxadiazole] was tested, and the Emax at 0.001 µM (Human GPR119; 1 nM) was 132%, the Emax at 0.01 µM (Human GPR119; 10 nM) was 309% and the inhibition in vivo at 10 mg/kg (C57BL/6 mouse) was less than 30%.

With `CC(C)c1nc(-c2c(F)cc(OCCCC3CCN(c4ncc(C(F)(F)F)cn4)CC3)cc2F)no1` [Example 25, 3-(2,6-difluoro-4-(3-(1-(5-(trifluoromethyl)pyrimidin-2-yl)piperidin-4-yl)propoxy)phenyl)-5-isopropyl-1,2,4-oxadiazole] the Emax at 0.001 µM (Human GPR119; 1 nM) was 159%, the Emax at 0.01 µM (Human GPR119; 10 nM) was 274% and the inhibition in vivo at 10 mg/kg (C57BL/6 mouse) was less than 30%.

Compound `CC(C)c1nc(-c2c(F)cc(OCCCC3CCN(c4ncc(Cl)cn4)CC3)cc2F)no1` [Example 28, 3-(4-(3-(1-(5-chloropyrimidin-2-yl)piperidin-4-yl)propoxy)-2,6-difluorophenyl)-5-isopropyl-1,2,4-oxadiazole] has an Emax at 0.001 µM (Human GPR119; 1 nM) of 23.8%, an Emax at 0.01 µM (Human GPR119; 10 nM) of 115% and an inhibition in vivo at 10 mg/kg (C57BL/6 mouse) of less than 30%.

`CC(C)c1nc(-c2c(F)cc(OCCCC3CCN(c4ccc(C(F)(F)F)cn4)CC3)cc2F)no1` [Example 38, 3-(2,6-difluoro-4-(3-(1-(5-(trifluoromethyl)pyridin-2-yl)piperidin-4-yl)propoxy)phenyl)-5-isopropyl-1,2,4-oxadiazole] gave an Emax at 0.001 µM (Human GPR119; 1 nM) of 102%, an Emax at 0.01 µM (Human GPR119; 10 nM) of 120% and an inhibition in vivo at 10 mg/kg (C57BL/6 mouse) of less than 30%.

Work on `CC(C)c1noc(N2CCC(CCCOc3cc(F)c(-c4noc(C(C)C)n4)c(F)c3)CC2)n1` [Example 40, 3-(2,6-difluoro-4-(3-(1-(3-isopropyl-1,2,4-oxadiazol-5-yl)piperidin-4-yl)propoxy)phenyl)-5-isopropyl-1,2,4-oxadiazole] yielded an Emax at 0.001 µM (Human GPR119; 1 nM) of 63.7%, an Emax at 0.01 µM (Human GPR119; 10 nM) of 206% and an inhibition in vivo at 10 mg/kg (C57BL/6 mouse) of 30 to 40%.

In the case of `CCc1cnc(N2CCC(CCCOc3cc(F)c(-c4nnc(C)o4)c(F)c3)CC2)nc1` [Example 42, 2-(4-(3-(1-(5-ethylpyrimidin-2-yl)piperidin-4-yl)propoxy)-2,6-difluorophenyl)-5-methyl-1,3,4-oxadiazole], the Emax at 0.001 µM (Human GPR119; 1 nM) is reported as 127%, the Emax at 0.01 µM (Human GPR119; 10 nM) is reported as 150% and the inhibition in vivo at 10 mg/kg (C57BL/6 mouse) is reported as greater than 40%.

`CCc1cnc(N2CCC(CCCOc3cc(F)c(-c4nnc(CC)o4)c(F)c3)CC2)nc1` [Example 43, 2-ethyl-5-(4-(3-(1-(5-ethylpyrimidin-2-yl)piperidin-4-yl)propoxy)-2,6-difluorophenyl)-1,3,4-oxadiazole] gave an Emax at 0.001 µM (Human GPR119; 1 nM) of 260%, an Emax at 0.01 µM (Human GPR119; 10 nM) of 538% and an inhibition in vivo at 10 mg/kg (C57BL/6 mouse) greater than 40%.

`Cc1nnc(-c2c(F)cc(OCCCC3CCN(c4ncc(C(F)(F)F)cn4)CC3)cc2F)o1` [Example 46, 2-(2,6-difluoro-4-(3-(1-(5-(trifluoromethyl)pyrimidin-2-yl)piperidin-4-yl)propoxy)phenyl)-5-methyl-1,3,4-oxadiazole] was tested, and the Emax at 0.001 µM (Human GPR119; 1 nM) was 209%, the Emax at 0.01 µM (Human GPR119; 10 nM) was 239% and the inhibition in vivo at 10 mg/kg (C57BL/6 mouse) was greater than 40%.

In the case of `CCc1nnc(-c2c(F)cc(OCCCC3CCN(c4ncc(C(F)(F)F)cn4)CC3)cc2F)o1` [Example 47, 2-(2,6-difluoro-4-(3-(1-(5-(trifluoromethyl)pyrimidin-2-yl)piperidin-4-yl)propoxy)phenyl)-5-ethyl-1,3,4-oxadiazole], the Emax at 0.001 µM (Human GPR119; 1 nM) is reported as 66%, the Emax at 0.01 µM (Human GPR119; 10 nM) is reported as 218% and the inhibition in vivo at 10 mg/kg (C57BL/6 mouse) is reported as greater than 40%.

`CC(C)c1nnc(-c2c(F)cc(OCCCC3CCN(c4cnc(Cl)cn4)CC3)cc2F)o1` [Example 51, 2-(4-(3-(1-(5-chloropyrazin-2-yl)piperidin-4-yl)propoxy)-2,6-difluorophenyl)-5-isopropyl-1,3,4-oxadiazole] gave an Emax at 0.001 µM (Human GPR119; 1 nM) of 90.7%, an Emax at 0.01 µM (Human GPR119; 10 nM) of 180% and an inhibition in vivo at 10 mg/kg (C57BL/6 mouse) greater than 40%.
